Source: paper PMC9161374 (Science Translational Medicine, 2022)
Several values for one entry are separate records, joined by “and”; a condition that tells them apart may be missing. Equal values may be shown once. Read-outs that look alike come from different tables or passages of the source.

Columns and labels:
SARS-CoV-2 (B.1) = experiment: Anti-SARS-CoV-2 activity in Vero E6 cells (viral yield by qRT-PCR); type: cell-based; details: for % Inhibition: listed as Remdsivir
[1] = tested on: SARS-CoV-2 (Beta, B.1.351); experiment: microbe, parasite or virus in culture; type: cell-based; details: for % Inhibition: beta, listed as Remdsivir
[2] = tested on: SARS-CoV-2 (Delta, B.1.617.2); experiment: microbe, parasite or virus in culture; type: cell-based; details: for % Inhibition: delta, listed as Remdsivir
[3] = CCK-8 cell viability assay; type: cell-based, African green monkey; details: African green monkey; Vero E6 cells, 48 h, CCK8
Description: To investigate the effect of drugs on cell viability, Vero E6 cells were seeded in 96-well plates at a density of 20,000 cells per well and were treated with drugs at indicated concentrations (0, 0.01, 0.1, 1, 5, 10, 50, 75, 100, 200 μM) for 48 hours. Cell viability was tested by using Cell Counting Kit-8 (CCK-8, Bimake, B34302). The figures were plotted from cell viability percentage versus the drug concentrations using GraphPad Prism 6 software.
Fig. S4. Cytotoxicity assay of compounds in Vero E6 cells.
Vero E6 cells were plated in 96-well plates and treated with increasing concentrations
of each indicated compound, ranging from 0 to 200 μM, for 48 hours. Cell viability was
tested using Cell Counting Kit-8 (CCK-8). Data are presented as mean ± SD.

[4] = tested on: SARS-CoV-2 (Omicron, B.1.1.529); details: Omicon, Vero E6, replicates, listed as Remdsivir
COVID-19 = tested on: COVID-19; design: method as in PMID 34937145; details: administered early to non-hospitalized, high-risk patients ref 27; cited from earlier work
[5] = tested on: SARS-CoV-2 (Omicron, B.1.1.529); experiment: microbe, parasite or virus in culture
[6] = Severe acute respiratory syndrome coronavirus 2, Vero C1008, read-out: EC90 (Confidence 95%)

CCC(CC)COC(=O)[C@H](C)N[P@](=O)(OC[C@H]1O[C@@](C#N)(c2ccc3c(N)ncnn23)[C@H](O)[C@@H]1O)Oc1ccccc1 [Remdesivir, remdesivir, reference compound]
% Inhibition (SARS-CoV-2 (B.1); B.1, 2 uM, Vero E6, replicates, 2 µM): 36.1424%
% Inhibition (SARS-CoV-2 (B.1); B.1, 5 uM, Vero E6, replicates, 5 µM): 93.823%
% Inhibition (SARS-CoV-2 (B.1); B.1, 10 uM, Vero E6, replicates, 10 µM): 98.7241%
% Inhibition (SARS-CoV-2 (B.1); B.1, 50 uM, Vero E6, replicates, 50 µM): 99.0519%
inhibition at 0.01 µM (SARS-CoV-2 (B.1); Severe acute respiratory syndrome coronavirus 2, Vero C1008, B.1, 0.01 uM, Vero E6, replicates): 0%
inhibition at 0.1 µM (SARS-CoV-2 (B.1); Severe acute respiratory syndrome coronavirus 2, Vero C1008, B.1, 0.1 uM, Vero E6, replicates): 0%
inhibition at 0.25 µM (SARS-CoV-2 (B.1); Severe acute respiratory syndrome coronavirus 2, Vero C1008, B.1, 0.25 uM, Vero E6, replicates): 0%
inhibition at 0.5 µM (SARS-CoV-2 (B.1); Severe acute respiratory syndrome coronavirus 2, Vero C1008, B.1, 0.5 uM, Vero E6, replicates): 0%
inhibition at 1 µM (SARS-CoV-2 (B.1); Severe acute respiratory syndrome coronavirus 2, Vero C1008, B.1, 1 uM, Vero E6, replicates): 0%
inhibition at 2 µM (SARS-CoV-2 (B.1); Severe acute respiratory syndrome coronavirus 2, Vero C1008, B.1, 2 uM, Vero E6, replicates): 39.1%
inhibition at 5 µM (SARS-CoV-2 (B.1); Severe acute respiratory syndrome coronavirus 2, Vero C1008, B.1, 5 uM, Vero E6, replicates): 94.6%
inhibition at 10 µM (SARS-CoV-2 (B.1); Severe acute respiratory syndrome coronavirus 2, Vero C1008, B.1, 10 uM, Vero E6, replicates): 98.6%
inhibition at 50 µM (SARS-CoV-2 (B.1); Severe acute respiratory syndrome coronavirus 2, Vero C1008, B.1, 50 uM, Vero E6, replicates): 99.2%
EC90 (SARS-CoV-2 (B.1); [6]): 4.25 µM
EC50 (SARS-CoV-2 (B.1); Severe acute respiratory syndrome coronavirus 2, Vero C1008, MOI 0.05, 48 h): 2.28 µM
EC50 ([1]; Severe acute respiratory syndrome coronavirus 2, Vero C1008, 48 h, read-out: EC50 in Vero E6 cells, SARS-CoV-2 (Beta, B.1.351)): 1.78 µM
inhibition at 0.01 µM ([1]; Severe acute respiratory syndrome coronavirus 2, Vero C1008, beta, 0.01 uM, Vero E6, replicates): 0%
inhibition at 0.1 µM ([1]; Severe acute respiratory syndrome coronavirus 2, Vero C1008, beta, 0.1 uM, Vero E6, replicates): 0%
inhibition at 0.25 µM ([1]; Severe acute respiratory syndrome coronavirus 2, Vero C1008, beta, 0.25 uM, Vero E6, replicates): 0%
inhibition at 0.5 µM ([1]; Severe acute respiratory syndrome coronavirus 2, Vero C1008, beta, 0.5 uM, Vero E6, replicates): 0%
inhibition at 2 µM ([1]; Severe acute respiratory syndrome coronavirus 2, Vero C1008, beta, 2 uM, Vero E6, replicates): 65.2%
inhibition at 5 µM ([1]; Severe acute respiratory syndrome coronavirus 2, Vero C1008, beta, 5 uM, Vero E6, replicates): 86.2%
inhibition at 10 µM ([1]; Severe acute respiratory syndrome coronavirus 2, Vero C1008, beta, 10 uM, Vero E6, replicates): 99.9%
inhibition at 50 µM ([1]; Severe acute respiratory syndrome coronavirus 2, Vero C1008, beta, 50 uM, Vero E6, replicates): 99.9%
EC90 ([1]; Severe acute respiratory syndrome coronavirus 2, Vero C1008, read-out: EC90 (Confidence 95%), Vero-E6, Beta B.1.351): 5.02 µM
% Inhibition ([1]; 1 uM, Vero E6, replicates): 35.9868% and 14.2725%
% Inhibition ([1]; 2 uM, Vero E6, replicates): 49.345%
% Inhibition ([1]; 5 uM, Vero E6, replicates): 85.4168%
% Inhibition ([1]; 10 uM, Vero E6, replicates): 99.9589%
% Inhibition ([1]; 50 uM, Vero E6, replicates): 99.9256%
EC50 ([2]; Severe acute respiratory syndrome coronavirus 2, Vero C1008, 48 h, read-out: EC50 in Vero E6 cells, SARS-CoV-2 (Delta, B.1.617.2)): 1.65 µM
inhibition at 0.01 µM ([2]; Severe acute respiratory syndrome coronavirus 2, Vero C1008, delta, 0.01 uM, Vero E6, replicates): 0%
inhibition at 0.1 µM ([2]; Severe acute respiratory syndrome coronavirus 2, Vero C1008, delta, 0.1 uM, Vero E6, replicates): 0%
inhibition at 0.25 µM ([2]; Severe acute respiratory syndrome coronavirus 2, Vero C1008, delta, 0.25 uM, Vero E6, replicates): 0%
inhibition at 0.5 µM ([2]; Severe acute respiratory syndrome coronavirus 2, Vero C1008, delta, 0.5 uM, Vero E6, replicates): 0%
inhibition at 1 µM ([2]; Severe acute respiratory syndrome coronavirus 2, Vero C1008, delta, 1 uM, Vero E6, replicates): 55.7%
inhibition at 2 µM ([2]; Severe acute respiratory syndrome coronavirus 2, Vero C1008, delta, 2 uM, Vero E6, replicates): 58%
inhibition at 5 µM ([2]; Severe acute respiratory syndrome coronavirus 2, Vero C1008, delta, 5 uM, Vero E6, replicates): 77.1%
inhibition at 10 µM ([2]; Severe acute respiratory syndrome coronavirus 2, Vero C1008, delta, 10 uM, Vero E6, replicates): 99.2%
inhibition at 50 µM ([2]; Severe acute respiratory syndrome coronavirus 2, Vero C1008, delta, 50 uM, Vero E6, replicates): 99.9%
EC90 ([2]; Severe acute respiratory syndrome coronavirus 2, Vero C1008, read-out: EC90 (Confidence 95%), Vero-E6, Delta B.1.617.2): 7.34 µM
% Inhibition ([2]; 1 uM, Vero E6, replicates): 43.4129%
% Inhibition ([2]; 2 uM, Vero E6, replicates): 46.5254%
% Inhibition ([2]; 5 uM, Vero E6, replicates): 77.4749%
% Inhibition ([2]; 10 uM, Vero E6, replicates): 96.2382%
% Inhibition ([2]; 50 uM, Vero E6, replicates): 99.3849%
CC50 at 48 h [3]: > 50 µM
% Inhibition ([4]; 2.5 uM): 31.5626% and 77.85% and 88.9906%
% Inhibition ([4]; 5 uM): 96.6907% and 99.2675%
% Inhibition ([4]; 10 uM): 99.9718% and 99.9679%
reduction of the risk of hospitalization or death (COVID-19): 87%
EC50 ([5]; Severe acute respiratory syndrome coronavirus 2, Vero C1008, 48 h, read-out: EC50 in Vero E6 cells, SARS-CoV-2 (Omicron, B.1.1.529)): 1.24 µM
inhibition at 0.069 µM ([5]; Severe acute respiratory syndrome coronavirus 2, Vero C1008, Omicon, 0.069 uM, Vero E6, replicates): 0%
inhibition at 5 µM ([5]; Severe acute respiratory syndrome coronavirus 2, Vero C1008, Omicon, 5 uM, Vero E6, replicates): 96.9%
inhibition at 10 µM ([5]; Severe acute respiratory syndrome coronavirus 2, Vero C1008, Omicon, 10 uM, Vero E6, replicates): 100%
EC90 [5, 6]: 5.69 µM
